Values after ≈ are worked out from the molar mass of the structure shown.

Usually MIC stands for the lowest concentration found to suppress growth. Low readings indicate a more susceptible organism, high ones a less susceptible organism.

For assay [1], the system named is Proteus vulgaris ATCC13315. Nature of the assay: Antibacterial spectrum MIC (Table 7). In kind it is cell-based. An outline of the steps:
(§1)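 CLSI broth microdilution in Mueller-Hinton broth: compounds were dissolved in DMSO, diluted with sterile water and tested at final 8–512 μg/ml against about 1×10^5 CFU/ml inoculum. After 18 h at 37 °C, the MIC was read and OD600 turbidity was recorded.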

The subject of assay [2] is Pseudomonas aeruginosa ATCC7700. Nature of the assay: Antibacterial spectrum MIC (Table 7). In kind it is cell-based. An outline of the steps:
as §1

The next assay has as its system MSSA ATCC25923. Kind of assay: Membrane damaging properties, SYTOX Green fluorescence (Example 4). Format: cell-based, Staphylococcus aureus. Particulars: for fluorescence intensity ratio of SYTOX Green (control PBS = 1): 37° C., 15 minutes, EGCG derivative 4-32, EGCG 8-128, NISIN 1-8 μg/ml, FIG. 3. As to the method:
As an antibacterial agent, the EGCG-C16 prepared in Example 1 was used in Example 4; EGCG was used in Comparative Example 4; and membrane-damaging peptide NISIN (MP Biomedicals) was used in a reference example. Antibacterial agent solutions of EGCG-C16 and EGCG were prepared by dissolving them in DMSO so as to achieve top concentrations, respectively. An antibacterial agent solution of the other antibacterial agent was prepared by dissolving it in PBS and diluted with PBS as appropriate. The influence of DMSO used for dissolving the antibacterial agents also was considered.
MSSA ATCC25923 and MRSA ATCC43300 were subjected to shaking culture in MH-broths (Difco) until they reached a late stage in the exponential growth phase. The thus-obtained culture solutions were each centrifuged at 7000 rpm for 10 minutes, and bacterial cells that had settled were suspended in PBS. The suspension of the bacterial cells was added to wells of a 384 black plate, and each of the antibacterial agent solutions was further added thereto and mixed. The resultant mixture was incubated at 37° C. for 15 minutes. Subsequently, a dead cell-staining dye (trade name “SYTOX Green”, LONZA) was mixed in each well so that the concentration thereof became 10 μmol/l, and the resultant mixture was incubated at 37° C. for 10 minutes. […] On the other hand, as a control, the fluorescence intensity was measured in the same manner, except that PBS or 10% DMSO was added instead of the antibacterial agent solutions. Then, regarding each of the MSSA and MRSA, the ratio of the fluorescence intensity when each of the agents was added was calculated assuming that the fluorescence intensity obtained in the control (PBS) was 1.

As to `O=C(O[C@@H]1Cc2c(O)cc(O)cc2O[C@@H]1c1cc(O)c(O)c(O)c1)c1cc(O)c(O)c(O)c1` [EGCG, Epigallocatechin gallate, reference compound], the MIC in assay [1] and in assay [2] was 64 mg/L (≈ 140 µM) each time. Further, in the assay on MSSA ATCC25923, the “fluorescence intensity ratio of SYTOX Green (control PBS = 1)” value is given as “smaller than 1”.

Compound EGCG-linolate [EGCG-C18DE] registered a minimal inhibitory concentration (MIC) in assay [1] of 32 mg/L.

EGCG-stearate [EGCG-C18] came in with an MIC in assay [2] of 32 mg/L. On to EGCG-palmitate [EGCG-C16], for which the “fluorescence intensity ratio of SYTOX Green (control PBS = 1)” value in the assay with MSSA ATCC25923 is listed as “very high fluorescence intensity ratio”. The “cell membrane-damaging action at high concentration (SYTOX Green)” value in the assay on MSSA ATCC25923 (EGCG-C16 at 64 μg/ml) is on record as “tendency for this action of EGCG-C16 to become weak”.

These data come from US9801850B2, “Antibacterial agent” (OSAKA UNIVERSITY, priority 2009, dated 2017).
